What was measured:
[1] = test system: ES-2 cells; assay: Cell growth suppression experiment (ES-2); format: cell-based; conditions: Homo sapiens, 48 h, cultured 2 days, CellTiter-Glo 3D
Protocol: ES-2 cells were obtained from the American Type Culture Collection (ATCC). These cells were cultured at 37° C. in the presence of 5% CO2 in a McCoy's 5a medium containing 10% fetal bovine serum and 1% penicillin/streptomycin.
500 cells were seeded for each well in a 384-well plate, and the evaluated compound was added to the final DMSO concentration of 0.1% to culture the cells for 2 days. After completion of the culture, the cell viability rate was calculated using CellTiter-Glo (registered trademark) 3D Reagent (Promega, G968B).

[2] = target: CHK1 kinase (Homo sapiens (Human), UniProt O14757)
[3] = target: hERG current (Homo sapiens (Human), UniProt Q12809); assay: cell-based
hERG current, sequence (Q12809 whole entry): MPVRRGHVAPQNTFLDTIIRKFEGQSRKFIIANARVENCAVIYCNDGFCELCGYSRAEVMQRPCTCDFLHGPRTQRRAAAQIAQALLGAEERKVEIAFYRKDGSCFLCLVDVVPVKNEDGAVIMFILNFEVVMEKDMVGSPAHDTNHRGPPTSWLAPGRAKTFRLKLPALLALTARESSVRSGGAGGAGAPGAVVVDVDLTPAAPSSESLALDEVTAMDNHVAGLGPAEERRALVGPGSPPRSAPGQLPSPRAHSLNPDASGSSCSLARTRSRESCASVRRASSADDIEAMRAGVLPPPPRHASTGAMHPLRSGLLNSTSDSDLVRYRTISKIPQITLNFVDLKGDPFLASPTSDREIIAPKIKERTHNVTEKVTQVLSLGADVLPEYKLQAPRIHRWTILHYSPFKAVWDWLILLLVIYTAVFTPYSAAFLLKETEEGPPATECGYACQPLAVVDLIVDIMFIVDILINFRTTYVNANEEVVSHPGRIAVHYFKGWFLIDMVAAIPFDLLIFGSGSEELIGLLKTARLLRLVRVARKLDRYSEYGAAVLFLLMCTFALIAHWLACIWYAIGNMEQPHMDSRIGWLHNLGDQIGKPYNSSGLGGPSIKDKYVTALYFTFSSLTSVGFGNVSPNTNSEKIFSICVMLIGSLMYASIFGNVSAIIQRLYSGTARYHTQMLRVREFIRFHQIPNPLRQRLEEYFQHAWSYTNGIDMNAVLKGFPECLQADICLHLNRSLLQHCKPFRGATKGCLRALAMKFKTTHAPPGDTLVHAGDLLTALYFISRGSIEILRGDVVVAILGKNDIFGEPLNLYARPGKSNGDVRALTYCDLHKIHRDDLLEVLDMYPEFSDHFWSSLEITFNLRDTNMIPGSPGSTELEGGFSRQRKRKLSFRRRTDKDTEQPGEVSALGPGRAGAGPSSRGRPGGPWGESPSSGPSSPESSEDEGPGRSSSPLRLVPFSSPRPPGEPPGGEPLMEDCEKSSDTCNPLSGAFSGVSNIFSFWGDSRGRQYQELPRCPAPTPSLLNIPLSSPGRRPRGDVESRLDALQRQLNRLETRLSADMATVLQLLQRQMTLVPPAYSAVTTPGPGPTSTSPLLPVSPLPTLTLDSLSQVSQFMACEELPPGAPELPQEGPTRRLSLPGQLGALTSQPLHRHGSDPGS

CHK1 kinase, sequence (O14757 whole entry): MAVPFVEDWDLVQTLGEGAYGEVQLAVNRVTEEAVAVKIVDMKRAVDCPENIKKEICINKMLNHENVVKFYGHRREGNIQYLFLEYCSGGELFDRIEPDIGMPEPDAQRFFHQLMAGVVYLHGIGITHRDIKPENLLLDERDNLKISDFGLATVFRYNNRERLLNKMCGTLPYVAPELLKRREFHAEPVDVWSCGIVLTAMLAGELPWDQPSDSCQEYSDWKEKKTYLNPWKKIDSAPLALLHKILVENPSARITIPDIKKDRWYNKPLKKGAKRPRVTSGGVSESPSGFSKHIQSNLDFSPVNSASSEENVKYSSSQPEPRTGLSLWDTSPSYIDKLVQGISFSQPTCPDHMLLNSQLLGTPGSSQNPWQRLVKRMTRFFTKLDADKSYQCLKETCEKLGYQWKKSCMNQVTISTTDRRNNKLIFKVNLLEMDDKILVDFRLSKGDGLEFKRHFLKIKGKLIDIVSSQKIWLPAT

| SMILES | IC50 [1] [nM] | IC50 [2] [nM] | IC50 [3] [nM] |
| --- | --- | --- | --- |
| CC1(COc2ccc3c(c2-c2cc(Nc4cnc(C#N)cn4)n[nH]2)OCC3)CNC1 [Example 5, 5-[(5-{6-[(3-methylazetidin-3-yl)methoxy]-2,3-dihydro-1-benzofuran-7-yl}-1H-pyrazol-3-yl)amino]pyrazine-2-carbonitrile] | 6.7 |  |  |
| NCCCOc1cnc2c(c1-c1cc(Nc3cnc(Cl)cn3)n[nH]1)OCC2 [Example 32, N-{5-[6-(3-aminopropoxy)-2,3-dihydrofuro[3,2-b]pyridin-7-yl]-1H-pyrazol-3-yl}-5-chloropyrazin-2-amine] | 21.5 | 0.33 |  |
| N#Cc1cnc(Nc2cc(-c3c(OCC4(C(F)F)CNC4)cnc4c3OCC4)[nH]n2)cn1 [Example 22, 5-{[5-(6-{[3-(difluoromethyl)azetidin-3-yl]methoxy}-2,3-dihydrofuro[3,2-b]pyridin-7-yl)-1H-pyrazol-3-yl]amino}pyrazine-2-carbonitrile] | 13.7 | 0.39 |  |
| N#Cc1cnc(Nc2cc(-c3c(OCC4(CN)CC4)ccc4c3OCC4)[nH]n2)cn1 [Example 4, 5-{[5-(6-{[1-(aminomethyl)cyclopropyl]methoxy}-2,3-dihydro-1-benzofuran-7-yl)-1H-pyrazol-3-yl]amino}pyrazine-2-carbonitrile] | 9.1 | 0.27 | 300 |
| N#Cc1cnc(Nc2cc(-c3c(O[C@@H]4CCC[C@H](N)C4)cnc4cccnc34)[nH]n2)cn1 [Example 36, 5-{[5-(3-{[(1R,3S)-3-aminocyclohexyl]oxy}-1,5-naphthyridin-4-yl)-1H-pyrazol-3-yl]amino}pyrazine-2-carbonitrile] | 6 | 0.46 |  |
| N#Cc1cnc(Nc2cc(-c3c(OCC4(CN)CC4)ccc4ccnn34)[nH]n2)cn1 [Example 17, 5-{[5-(6-{[1-(aminomethyl)cyclopropyl]methoxy)pyrazolo[1,5-a]pyridin-7-yl)-1H-pyrazol-3-yl]amino}pyrazine-2-carbonitrile] | 3.7 | 0.27 |  |
| N#Cc1cnc(Nc2cc(-c3c(O[C@@H]4CCC[C@H]4CN)cnc4cccnc34)[nH]n2)cn1 [Example 34, 5-{[5-(3-{[(1R,2S)-2-(aminomethyl)cyclopentyl]oxy}-1,5-naphthyridin-4-yl)-1H-pyrazol-3-yl]amino}pyrazine-2-carbonitrile] | 5.5 | 0.75 |  |
| N#Cc1cnc(Nc2cc(-c3c(OCCCN)ccc4cccnc34)[nH]n2)cn1 [Example 1, 5-({5-[7-(3-aminopropoxy)quinolin-8-yl]-1H-pyrazol-3-yl}amino)pyrazine-2-carbonitrile] | 4.9 | 0.37 |  |
| CNCCCOc1cnc2c(c1-c1cc(Nc3cnc(C#N)cn3)n[nH]1)OCC2 [Example 27, 5-[(5-{6-[3-(methylamino)propoxy]-2,3-dihydrofuro[3,2-b]pyridin-7-yl}-1H-pyrazol-3-yl)amino]pyrazine-2-carbonitrile] | 8.5 | 0.22 |  |
| N#Cc1cnc(Nc2cc(-c3c(OCC4(CN)CC4)cnc4cccnc34)[nH]n2)cn1 [Example 10, 5-{[5-(3-{[1-(aminomethyl)cyclopropyl]methoxy}-1,5-naphthyridin-4-yl)-1H-pyrazol-3-yl]amino}pyrazine-2-carbonitrile] | 6.6 | 0.34 |  |
| C[C@@H](Oc1cnc2c(c1-c1cc(Nc3cnc(C#N)cn3)n[nH]1)OCC2)C1CNC1 [Example 25, 5-[(5-{6-[(1R)-1-(azetidin-3-yl)ethoxy]-2,3-dihydrofuro[3,2-b]pyridin-7-yl}-1H-pyrazol-3-yl)amino]pyrazine-2-carbonitrile] | 6.4 | 0.43 |  |
| CC1(COc2ccc3ccnn3c2-c2cc(Nc3cnc(C#N)cn3)n[nH]2)CNC1 [Example 18, 5-[(5-{6-[(3-methylazetidin-3-yl)methoxy]pyrazolo[1,5-a]pyridin-7-yl)-1H-pyrazol-3-yl)amino]pyrazine-2-carbonitrile] | 4.7 | 0.34 |  |
| Cc1nc2ccc(OCCCN)c(-c3cc(Nc4cnc(C#N)cn4)n[nH]3)c2o1 [Example 16, 5-({5-[6-(3-aminopropoxy)-2-methyl-1,3-benzoxazol-7-yl]-1H-pyrazol-3-yl}amino)pyrazine-2-carbonitrile] | 489 | 0.45 |  |
| N#Cc1cnc(Nc2cc(-c3c(OCCCN)cnc4c3OCC4)[nH]n2)cn1 [Example 13, 5-({5-[6-(3-aminopropoxy)-2,3-dihydrofuro[3,2-b]pyridin-7-yl]-1H-pyrazol-3-yl}amino)pyrazine-2-carbonitrile] | 20 | 0.42 |  |
| N#Cc1cnc(Nc2cc(-c3c(OCC4(CN)CC(F)(F)C4)cnc4cccnc34)[nH]n2)cn1 [Example 38, 5-{[5-(3-{[1-(aminomethyl)-3,3-difluorocyclobutyl]methoxy)-1,5-naphthyridin-4-yl)-1H-pyrazol-3-yl]amino}pyrazine-2-carbonitrile] | 8.1 | 0.93 |  |
| N#Cc1cnc(Nc2cc(-c3c(OCC4(CN)CC4)ccc4ccoc34)[nH]n2)cn1 [Example 19, 5-{[5-(6-{[1-(aminomethyl)cyclopropyl]methoxy}-1-benzofuran-7-yl}-1H-pyrazol-3-yl]amino}pyrazine-2-carbonitrile] | 4.6 | 0.26 |  |
| N#Cc1cnc(Nc2cc(-c3c(OCCCN)ccc4c3OCC4)[nH]n2)cn1 [Example 3, 5-({5-[6-(3-aminopropoxy)-2,3-dihydro-1-benzofuran-7-yl]-1H-pyrazol-3-yl}amino)pyrazine-2-carbonitrile] | 4 |  | 530 |
| N#Cc1cnc(Nc2cc(-c3c(O[C@@H]4CC[C@@H](N)C4)cnc4c3OCC4)[nH]n2)cn1 [Example 21, 5-{[5-(6-{[(1R,3R)-3-aminocyclopentyl]oxy)-2,3-dihydrofuro[3,2-b]pyridin-7-yl)-1H-pyrazol-3-yl]amino}pyrazine-2-carbonitrile] | 11.8 |  |  |
| CC1(COc2cnc3c(c2-c2cc(Nc4cnc(C#N)cn4)n[nH]2)OCC3)CNC1 [Example 15, 5-[(5-{6-[(3-methylazetidin-3-yl)methoxy]-2,3-dihydrofuro[3,2-b]pyridin-7-yl}-1H-pyrazol-3-yl)amino]pyrazine-2-carbonitrile] | 7.2 | 0.23 |  |
| N#Cc1cnc(Nc2cc(-c3c(OCCCN)ccc4ccoc34)[nH]n2)cn1 [Example 2, 5-({5-[6-(3-aminopropoxy)-1-benzofuran-7-yl]-1H-pyrazol-3-yl}amino)pyrazine-2-carbonitrile] | 2.9 | 0.25 |  |
| N#Cc1cnc(Nc2cc(-c3c(OCCCN)cnc4ccnn34)[nH]n2)cn1 [Example 7, 5-({5-[6-(3-aminopropoxy)pyrazolo[1,5-a]pyrimidin-7-yl]-1H-pyrazol-3-yl}amino)pyrazine-2-carbonitrile] | 469 | 1.71 |  |
| N#Cc1cnc(Nc2cc(-c3c(OC[C@H]4CCNC4)cnc4c3OCC4)[nH]n2)cn1 [Example 26, 5-{[5-(6-{[(3S)-pyrrolidin-3-yl]methoxy}-2,3-dihydrofuro[3,2-b]pyridin-7-yl)-1H-pyrazol-3-yl]amino}pyrazine-2-carbonitrile] | 9.4 | 0.34 |  |
| C=C(CN)COc1cnc2c(c1-c1cc(Nc3cnc(C#N)cn3)n[nH]1)OCC2 [Example 31, 5-{[5-(6-{[2-(aminomethyl)prop-2-en-1-yl]oxy)-2,3-dihydrofuro[3,2-b]pyridin-7-yl)-1H-pyrazol-3-yl]amino}pyrazine-2-carbonitrile] | 13.8 | 0.31 |  |
| COC(=O)c1cnc(Nc2cc(-c3c(OCCCN)cnc4c3OCC4)[nH]n2)cn1 [Example 33, methyl 5-({5-[6-(3-aminopropoxy)-2,3-dihydrofuro[3,2-b]pyridin-7-yl]-1H-pyrazol-3-yl}amino)pyrazine-2-carboxylate] | > 1000 | 9.28 |  |
| N#Cc1cnc(Nc2cc(-c3c(O[C@@H]4CC[C@@H](N)C4)cnc4cccnc34)[nH]n2)cn1 [Example 37, 5-{[5-(3-{[(1R,3R)-3-aminocyclopentyl]oxy}-1,5-naphthyridin-4-yl)-1H-pyrazol-3-yl]amino}pyrazine-2-carbonitrile] | 6.8 | 0.49 |  |
| N#Cc1cnc(Nc2cc(-c3c(OCC(F)(F)CN)cnc4cccnc34)[nH]n2)cn1 [Example 9, 5-({5-[3-(3-amino-2,2-difluoropropoxy)-1,5-naphthyridin-4-yl]-1H-pyrazol-3-yl}amino)pyrazine-2-carbonitrile] | 4.7 | 0.64 |  |
| C[C@@H](CN)COc1cnc2c(c1-c1cc(Nc3cnc(C#N)cn3)n[nH]1)OCC2 [Example 30, 5-[(5-{6-[(2S)-3-amino-2-methylpropoxy]-2,3-dihydrofuro[3,2-b]pyridin-7-yl}-1H-pyrazol-3-yl)amino]pyrazine-2-carbonitrile] | 14.8 | 0.43 |  |
| CC1(COc2cnc3cccnc3c2-c2cc(Nc3cnc(C#N)cn3)n[nH]2)CNC1 [Example 11, 5-[(5-{3-[(3-methylazetidin-3-yl)methoxy]-1,5-naphthyridin-4-yl}-1H-pyrazol-3-yl)amino]pyrazine-2-carbonitrile] | 14.8 | 0.39 |  |
| N#Cc1cnc(Nc2cc(-c3c(OCC4(CN)CC4(F)F)ccc4ccoc34)[nH]n2)cn1 (stereo not shown) [Example 20, 5-{[5-(6-{[1-(aminomethyl)-2,2-difluorocyclopropyl]methoxy)-1-benzofuran-7-yl)-1H-pyrazol-3-yl]amino}pyrazine-2-carbonitrile] | 16.3 |  |  |
| N#Cc1cnc(Nc2cc(-c3c(OCC4(F)CNC4)cnc4c3OCC4)[nH]n2)cn1 [Example 23, 5-[(5-{6-[(3-fluoroazetidin-3-yl)methoxy]-2,3-dihydrofuro[3,2-b]pyridin-7-yl}-1H-pyrazol-3-yl)amino]pyrazine-2-carbonitrile] | 6.8 | 0.3 |  |

Reference: patent US20250129049A1, “1H-PYRAZOLE-3-AMINE DERIVATIVE HAVING BICYCLIC BACKBONE” (Sumitomo Pharma Co., Ltd., priority 2021, published 2025)
